Assay results as given in patent publication US12552854B2, “Peptides that block presentation of antigenic islet peptides by HLA-DQ8 and methods for treating type-1 diabetes” (Icahn School of Medicine at Mount Sinai, priority 2019, dated 2026).
“Also recorded” adds a separate entry of the source.

What was measured:
[1] = system: PBMCs isolated from DQ8 positive T1D patients; assay: CFSE T-cell proliferation in PBMCs from DQ8 positive recent-onset T1D patients; assay type: cell-based, human; conditions: all peptides at 50 μg/ml
Source text: (§1) Subjects with a diagnosis of T1D within the previous 2 years were recruited from the Pediatric Endocrine clinic at Children Hospital at Montefiore and from the adult Endocrine clinics at Montefiore and Mount Sinai Hospitals (New York). Peripheral blood mononuclear cells (PBMCs) were isolated from heparinized blood using Ficoll-Paque (GE Healthcare); freshly isolated PBMCs were used for T-cell activation studies and for genotyping. DNA purified from the blood of the patients was typed for HLA-DQ as previously described (32). PBMCs isolated from DQ8 positive patients were seeded in 96 well plates with 200 μl medium (RPMI, 10% FBS). […] The stimulated PBMCs were assessed for cytokine production and T-cell proliferation as described above for mouse splenocytes. DQ8 typed patients with long standing T1D (>10 years) were used as negative controls in the experiments (no T-cell responses to islet peptides).

[2] = molecular target: T1, recombinant HLA-DQ8 protein (Homo sapiens, UniProt P01909+P01920); assay: DELFIA immunoassay: inhibition of biotinylated InsB:9-23 binding to recombinant HLA-DQ8; conditions: for inhibition of InsB:9-23 binding to HLA-DQ8 (in words): D-peptides screened at 10 μM, recombinant HLA-DQ8
T1 construct: contained the extracellular portion of the DQA1*0301 α chain fused to the coiled-coil region of the basic leucine zipper domain of Fos; contained the extracellular portion of the DQB1*0302 β chain fused to the coiled-coil region of the basic leucine zipper domain of JunB; Fos leucine zipper (coiled-coil region) (C); TEV protease site (internal); His6; JunB leucine zipper (coiled-coil region) (C); FLAG; host or cells: baculovirus system
Source text: HLA-DQ8 protein was produced using the baculovirus system. Two constructs were designed for both the α and the β chains of HLA-DQ8. The β chain construct contained the extracellular portion of the DQB1*0302 β chain fused to the coiled-coil region of the basic leucine zipper domain of JunB, and the α chain construct contained the extracellular portion of the DQA1*0301 α chain fused to the coiled-coil region of the basic leucine zipper domain of Fos. […] A tobacco etch virus protease cutting site was introduced in each chain to allow removal of the dimerization motif. The JunB and Fos dimerization motifs were added in order to allow the α and β chains to dimerize and form the final HLA-DQ8 protein (FIG. 12A). These constructs were used to produce the HLA-DQ8 protein in a baculovirus system using the Life Technologies Baculovirus protein production custom services (Carlsbad, CA).
D-peptides were produced by Fisher Scientific (Hanover Park, IL) in dry form and dissolved in PBS. All D-peptides were screened at a concentration of 10 μM for their ability to bind to the HLA-DQ8 pocket and block it from binding the InsB:9-23 peptide using a unique immunoassay (23). […] After washing 4 times, DELFIA Europium-labeled streptavidin (PerkinElmer) diluted in DELFIA assay buffer (PerkinElmer) was added for 30 minutes and shaken at slow speed at room temperature. Since the InsB:9-23 peptide was biotinylated the complex HLA-DQ8-InsB:9-23 peptide could be detected using the Europium-labeled streptavidin. After washing for 6 times, DELFIA Enhancement Solution was added for 1 hour or until the optimal signal was reached. Time-resolved fluorescence was measured using the BMG reader (BMG Labtech, Cary, NC). The experiment was performed in triplicate. As a negative control biotinylated InsB:9-23 peptide that was not pre-incubated with HLA-DQ8 was added to the nickel coated plates.
Immunoassay was performed as described above.

[3] = Metabolic stability in mouse hepatocytes; assay type: in vitro ADME; conditions: mouse, hepatocytes; 1 μM; read-out: half-life after incubation with mouse hepatocytes (converted)
Experimental: Cryopreserved mouse hepatocytes were thawed at 37° C. in water bath until the ice was almost melted (˜90 seconds). The suspensions from the each were immediately transferred to 50 mL centrifuge tubes containing pre-warmed thawing media (VitroGRO HT Medium, Thawing) at 37° C. The cell suspensions were centrifuged at 50 g for 5 minutes at 4° C. (SYS679). Supernatants were discarded and the pellets were re-suspended in pre-warmed 3 mL incubation media (from in vitroGRO HT Medium, Incubation) at 37° C. The percentages of viable cells in the suspension were determined by using the Trypan Blue stain method (20 μL of tryptan blue and 20 μL of cell suspension) DF=2. Cryo mouse hepatocyte (Bioreclamation, lot #CHV) viability was 72.62% (viable/dead=305/115), and the total cells were 4.57 million. 1.57 mL of incubation media was added to cell concentration to get 1 million cells/mL. 10 μl of 100 μM test compounds stock in ACN:H2O (v:v, 1:1) was added to 990 μl of hepatocyte suspension/incubation media in a 24-well plate. 10 μl of 20 μM Midazolam was added to 990 μl of hepatocyte suspension as a positive control in a 24-well plate. The cells were incubated in a 37° C. incubator (SYS431) for 4 hours. 50 μl of aliquots (n=2) were added to 800 ul of MeOH:water (v:v, 5:95) at 0, 15, 30, 60, 120, 180 and 240 minutes. For all samples, 20 μL of internal standard (200 ng/mL tolbutamide) was added to the solution in water. The samples were vortexed vigorously for 5 minutes and then loaded onto a pre-conditioned Oasis HLB 96-well SPE plate (10 mg, […]). The Oasis HLB 96-well SPE plate was conditioned with 1 mL of methanol and then rinsed with 1 mL of water before the samples were loaded. Once loaded onto the Oasis HLB 96-well SPE plate, residual solution was removed by vacuum. The samples were eluted into a clean 96-well plate with 800 μL of 0.1% formic acid in 70% acetonitrile. The samples were evaporated to dryness under nitrogen at ambient temperature using a TurboVap 96 Concentration Workstation (Caliper Life Sciences). […]

[4] = system: T-cells of InsB:9-23-immunized SJL-DQ8 mice; assay: In vivo D-peptide treatment of InsB:9-23-immunized SJL-DQ8 humanized mice; design: species or system mouse; conditions: 200 μg intraperitoneally on days 4, 7, 11 and 14; sacrifice day 17
[5] = Half-life and Intrinsic Clearance of RI-CT and RI-EXT (1 µM) after Incubation with Mouse Hepatocytes
Experimental: Table printed on a drawing sheet, FIG. 20
Title: Half-life and Intrinsic Clearance of RI-CT and RI-EXT (1 µM) after Incubation with Mouse Hepatocytes
First reader's note: The footnotes are printed inside the table frame as its last two rows; midazolam is a small-molecule positive control.

[6] = system: PBMCs isolated from DQ8 positive T1D patients; assay: Cytokine production in PBMCs from DQ8 positive recent-onset T1D patients; assay type: cell-based, human; conditions: stimulated with InsB:9-23 for 48 h; all peptides at 50 μg/ml
Source text: as §1

[7] = system: splenocytes isolated from SJL-DQ8 mice; assay: Ex vivo CFSE T-cell proliferation, splenocytes of InsB:9-23-immunized SJL-DQ8 mice; assay type: cell-based, mouse; conditions: all peptides at 50 μg/ml; 5 days
Source text: ID NO: 23) and reverse primer [NT]

[8] = molecular target: T2, HLA-DQ8 expressed on BSM cells (Homo sapiens, UniProt P01909+P01920, F237L); assay: Flow cytometric analysis of InsB:9-23 peptide binding to BSM cells; assay type: cell-based; conditions: flow cytometry
T2 construct: BSM cells that express HLA-DQ8 on their surface; host or cells: BSM cells (B-cell line homozygous for HLA-DQ8)
T2 sequence (P01920 33-261 A45G/Y58L/E77G/D89A/H199R/T217I, other chains not shown): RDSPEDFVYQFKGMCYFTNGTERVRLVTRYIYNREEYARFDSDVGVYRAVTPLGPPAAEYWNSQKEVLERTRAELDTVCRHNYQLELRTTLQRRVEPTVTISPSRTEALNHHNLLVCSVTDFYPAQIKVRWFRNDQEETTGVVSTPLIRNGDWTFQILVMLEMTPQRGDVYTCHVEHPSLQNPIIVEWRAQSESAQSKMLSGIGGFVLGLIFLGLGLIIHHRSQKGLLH
Experimental: N-terminal biotinylated peptide InsB:9-23 (or gliadin) were used to test for binding to BSM cells that express HLA-DQ8 on their surface. APC-streptavidin (BD Biosciences, Franklin Lakes, NJ) were used to detect the biotinylated peptides. […] After 24 hours incubation, cells were stained with PE-mouse anti-human HLA-DQ8 (BD Biosciences) and APC-streptavidin to detect the percent binding of the peptide to BSM cells with or without D-peptides. Percent binding was analyzed by flow cytometry.

[9] = system: 5KC cells (TCR specific for the InsB:9-23-DQ8 complex) with BSM cells; assay: Mixed lymphocyte reaction (BSM cells loaded with InsB:9-23 and 5KC cells), IL-2 by Luminex; assay type: cell-based, human, murine; conditions: peptide loaded on BSM cells
Experimental: BSM cells homozygous for HLA-DQ8 (European Collection of Authenticated Cell Cultures) were cultured in RPMI growth medium (ATCC, Manassas, VA) supplied with 10% fetal bovine serum (FBS) (Sigma), 1% penicillin-streptomycin (Corning, NY), and 2 mM glutamine (Corning). Cells were grown at 37° C., 5% CO2, and passaged 1-2 times a week. 5KC cells (generously provided by Dr. Maki Nakayama, University of Colorado, Denver) were produced and cultured as described (25, 26).
To functionally test in vitro D-peptides ability to block T-cell activation, 10^6 BSM cells were incubated over night with 200 μg/ml InsB:9-23 (or with scrambled InsB:9-23 or gliadin as negative peptides); on the following day InsB:9-23 loaded BSM cells were washed twice with phosphate buffered saline (PBS) to remove excess peptide and RI-CT or RI-EXT peptides (or scrambled RI-CT/RI-EXT, as negative controls) were added to the cells. Following 2 hours of incubation at 37° C. 5KC cells were added to the mixture BSM-InsB:9-23-D-peptides (1:1 proportion) and incubated overnight. 5KC cells are transfected with human T-cell receptor that is activated only upon engagement with HLA-DQ8-InsB:9-23 complex. […] After overnight incubation of the 5KC cells with BSM cells loaded with InsB:9-23 and with different D-peptides IL-2 production was measured in the supernatants by Luminex assay. […]

| Compound | T-cell proliferation induced by InsB:9-23 (CFSE assay), PBMCs of DQ8 positive T1D patients [1] | inhibition of InsB:9-23 binding to HLA-DQ8 (in words) [2] | inhibition of InsB:9-23 binding to HLA-DQ8 (in words) ([2]; listed as #10) | dose dependence of the inhibition of InsB:9-23 binding to HLADQ8 ([2]; serially diluted to 0.5 μM, FIG. 3D) | half-life [3] [h] | activation of T-cells by InsB:9-23 in immunized mice (IL-2, IFN-γ of splenocytes) [4] | CLint (mL/min/million cells) [5] [mL/min/million cells] | t1/2 [5] [h] | IFN-γ production, PBMCs of DQ8 positive T1D patients [6] | IL-2 production, PBMCs of DQ8 positive T1D patients [6] | T-cell proliferation induced by InsB:9-23 (CFSE assay), SJL-DQ8 splenocytes [7] | inhibition of the binding of InsB:9-23 to DQ8 expressed on BSM cells (in words) ([8]; 10 μM peptide) | induction of IL-2 secretion in 5KC cells / activation of 5KC cells [9] | binding to the recombinant HLA-DQ8 protein ([2]; biotinylated peptide, compared to scrambled InsB:9-23, FIG. 3B) | binding of InsB:9-23 to HLA-DQ8 positive BSM cells ([8]; incubated without D-peptides) [%] |
| --- | --- | --- | --- | --- | --- | --- | --- | --- | --- | --- | --- | --- | --- | --- | --- |
| CC(C)C[C@@H](NC(=O)[C@@H](Cc1ccc(O)cc1)NC(=O)[C@@H](CC(C)C)NC(=O)[C@H](NC(=O)[C@@H](CS)NC(=O)CNC(=O)[C@@H](CCC(=O)O)NC(=O)[C@@H](CCCNC(=N)N)NC(=O)CNC(=O)CNC(=O)[C@@H](Cc1ccccc1)NC(=O)[C@H](N)Cc1ccccc1)C(C)C)C(=O)N[C@H](C)C(=O)N[C@H](CCC(=O)O)C(=O)N[C@@H](C(=O)N[C@H](CC(C)C)C(=O)N[C@H](Cc1c[nH]cn1)C(=O)N[C@H](CO)C(=O)NCC(=O)O)C(C)C [RI-EXT] | significantly suppressed; also recorded: significantly decreased | significant inhibition | best extended sequence | dose-dependent | ~1 | significantly blocked | 0.012 | 0.963 | significantly suppressed; also recorded: significantly decreased | significantly suppressed; also recorded: significantly decreased | significantly suppressed; also recorded: significantly decreased | inhibits the binding | – | – | – |
| SHLVEALYLVCGERG [InsB:9-23, diabetogenic insulin peptide, reference compound] | – | – | – | – | – | – | – | – | – | – | – | – | dose-dependent manner | significant binding | 84.8 |
